pKi: −log10 of the molar value.
Key:
[1] = test system: Rattus norvegicus; assay: Percent inhibition of Urea nitrogen by the compound given as ratio of UN value in treated to vehicle treated ones after intraperitoneal administration of 10 mg/kg of compound to rats(vehicle 164.3+/-4.9); format: functional; details: ip
[2] = test system: Rattus norvegicus; assay: Urea nitrogen concentration measured after intraperitoneal administration of 10 mg/kg of compound to rats(vehicle 164.3+/-4.9); format: functional
[3] = test system: Rattus norvegicus; assay: Oral diuretic activity was measured after oral administration of 25 mg/kg to rats(control volume is 0.76+/-0.01); format: functional, Urine
[4] = test system: Rattus norvegicus; assay: Ratio of urinary excretion value (urinary volume) in treated rats to that in control rats, at a peroral dose of 25 mg/Kg; format: functional, Urine
[5] = molecular target: Adenosine A2 receptor (Rattus norvegicus, UniProt P29276+P30543)
[6] = test system: Rattus norvegicus; assay: Effect on urinary excretion potassium and sodium after oral administration of 25 mg/kg to rats(potassium and sodium excretion in control rat is 0.160+/-0.006); format: functional, Urine
[7] = test system: Rattus norvegicus; assay: Ratio of sodium ion/potassium ion concentration in treated rats to that in control rats, at a peroral dose of 25 mg/Kg; format: functional
[8] = test system: Rattus norvegicus; assay: Ratio of urinary excretion value (Na+ concentration) in treated rats to that in control rats, at a peroral dose of 25 mg/Kg; format: functional, Urine
[9] = test system: Rattus norvegicus; assay: Serum creatinine concentration measured after intraperitoneal administration of 10 mg/kg of compound to rats(vehicle 4.38+/-0.17); format: functional
[10] = test system: Rattus norvegicus; assay: Percent inhibition of serum creatinine by the compound given as ratio of Cr value in treated to vehicle treated ones after intraperitoneal administration of 10 mg/kg of compound to rats(vehicle 4.38+/-0.17); format: functional; details: ip
[11] = test system: Rattus norvegicus; assay: Urea nitrogen concentration measured after intraperitoneal administration of 1 mg/kg of compound to rats(vehicle 107.7+/-15.2); format: functional
[12] = test system: Rattus norvegicus; assay: Percent inhibition of Urea nitrogen by the compound given as ratio of UN value in treated to vehicle treated ones after intraperitoneal administration of 10 mg/kg of compound to rats(vehicle 138.4+/-9.8); format: functional; details: ip
[13] = test system: Rattus norvegicus; assay: Percent inhibition of serum creatinine by the compound given as ratio of Cr value in treated to vehicle treated ones after intraperitoneal administration of 1 mg/kg of compound to rats(vehicle 2.89+/-0.42); format: functional; details: ip
[14] = test system: Rattus norvegicus; assay: Effect on urinary excretion potassium and sodium after oral administration of 25 mg/kg to rats(potassium and sodium excretion in control rat is 0.134+/-0.017); format: functional, Urine
[15] = test system: Rattus norvegicus; assay: Oral diuretic activity was measured after oral administration of 25 mg/kg to rats(control volume is 0.87+/-0.04); format: functional, Urine
[16] = molecular target: T1, Adenosine receptor A1 (Cavia porcellus, UniProt P47745)
T1 sequence (P47745 whole entry): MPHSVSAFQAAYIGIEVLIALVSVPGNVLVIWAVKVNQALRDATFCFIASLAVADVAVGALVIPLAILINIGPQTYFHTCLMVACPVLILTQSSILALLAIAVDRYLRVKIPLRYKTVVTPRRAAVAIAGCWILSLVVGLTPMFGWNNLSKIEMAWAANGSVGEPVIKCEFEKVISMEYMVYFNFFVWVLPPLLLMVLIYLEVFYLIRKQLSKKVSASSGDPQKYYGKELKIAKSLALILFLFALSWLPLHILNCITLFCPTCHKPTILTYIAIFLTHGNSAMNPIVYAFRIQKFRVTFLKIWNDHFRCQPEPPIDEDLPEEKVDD
Description: Binding affinity against adenosine A1 receptor in guinea pig forebrain membranes using N6-[3H]cyclohexyladenosine as radioligand

[17] = test system: Rattus norvegicus; assay: Urea nitrogen concentration measured after intraperitoneal administration of 10 mg/kg of compound to rats(vehicle 138.4+/-9.8); format: functional
[18] = test system: Rattus norvegicus; assay: Ratio of urinary excretion value (Na+ concentration) in treated rats to that in control rats, at a peroral dose of 6.25 mg/Kg; format: functional, Urine
[19] = test system: Rattus norvegicus; assay: Serum creatinine concentration measured after intraperitoneal administration of 1 mg/kg of compound to rats(vehicle 2.89+/-0.42); format: functional
[20] = test system: Rattus norvegicus; assay: Percent inhibition of serum creatinine by the compound given as ratio of Cr value in treated to vehicle treated ones after intraperitoneal administration of 10 mg/kg of compound to rats(vehicle 2.89+/-0.18); format: functional; details: ip
[21] = test system: Rattus norvegicus; assay: Ratio of urinary excretion value (urinary volume) in treated rats to that in control rats, at a peroral dose of 6.25 mg/Kg; format: functional, Urine
[22] = test system: Rattus norvegicus; assay: Percent inhibition of Urea nitrogen by the compound given as ratio of UN value in treated to vehicle treated ones after intraperitoneal administration of 1 mg/kg of compound to rats(vehicle 107.7+/-15.2); format: functional; details: ip
[23] = test system: Rattus norvegicus; assay: Serum creatinine concentration measured after intraperitoneal administration of 10 mg/kg of compound to rats(vehicle 2.89+/-0.18); format: functional

CCCn1c(=O)c2c(nc(C(C3CC3)C3CC3)n2CCC)n(CCC)c1=O
inhibition in vivo at 10 mg/kg [1]: 3%
UN [2]: 159.2 mg/dL
Urine volume [3]: 1.12 ml 6hr-1 100g-1
T/C [4]: 1.47
pKi [5]: 5.20
Na [6]: 0.188 m equiv 6hr-1 100g-1
Na+/K+ [7]: 0.92
T/C [8]: 1.18
Cr [9]: 4.09 mg/dL
inhibition in vivo at 10 mg/kg [10]: 7%

FC(F)(F)c1nnc2c(NC3CCCC3)nc3ccccc3n12
UN [11]: 92 mg/dL
inhibition in vivo at 10 mg/kg [12]: 62%
inhibition in vivo at 1 mg/kg [13]: 10%
Na [14]: 0.314 m equiv 6hr-1 100g-1
Urine volume [15]: 1.86 ml 6hr-1 100g-1
pKi [16]: 7.12
UN [17]: 58.9 mg/dL
T/C [4]: 2.13
Ki [5]: 1300 nM
T/C [18]: 1.1
Cr [19]: 2.6 mg/dL
inhibition in vivo at 10 mg/kg [20]: 48%
T/C [21]: 0.92
inhibition in vivo at 1 mg/kg [22]: 15%
Na+/K+ [7]: 1.71
T/C [8]: 1.55
Cr [23]: 1.52 mg/dL

Reference: ChEMBL document CHEMBL1125524, “Adenosine A1 antagonists. 2. Structure-activity relationships on diuretic activities and protective effects against acute renal failure” (J Med Chem, 1992)
